How the values were obtained:
TRKA [1] = experiment: TRKA enzymatic assay; format: biochemical
Method: (§1) Example I. TRKA Enzymatic Assay
(§2) The kinase assays were carried out at 24° C. temperature in assay buffer (HEPES 50 mM, pH 7.0, NaN3 0.02%, BSA 0.01%, Orthovanadate 0.1 mM, DTT 1 mM, MgCl2 10 mM) in a final volume of 10 μL. Testing compounds were prepared by serial dilution in DMSO and transferred to the plate wells by ECHO liquid handler (Labcyte) with 0.5% DMSO in the final assay. […]. Reactions were initiated by the addition of 5 μL ATP in assay buffer. The final 10 μL kinase reaction consists of 0.58 nM TRKA, 1 mM ATP, 500 nM TK Substrate-biotin and SEB reagent 62.5 nM in assay buffer. […] After 60 minutes incubation at room temperature, the product activity was determined by measuring the fluorescence at 620 nm and 665 nm on Pherastar microplate reader (BMG Labtech). A ratio is calculated (665/620 nm) for each well. Wells with DMSO only were served as the positive controls and wells containing no ATP were used as negative controls. IC50 determination was performed by fitting the curve of percent control activity versus the log of the compound concentration using the Gene data.

TRKA [2] = biological target: TRKA (Homo sapiens, UniProt P04629); experiment: TRKA enzymatic assay; format: biochemical; conditions: 1 mM ATP
Method: as §1, §2

[3] = tested on: STAT5 (Tyr694) phosphorylation in SET-2 cells; experiment: STAT5 (Tyr694) phosphorylation cell based assay; conditions: Homo sapiens, pSTAT5, 2 hours, read-out: SET2 IC50
Method: Example E. STAT5 (Tyr694) Phosphorylation Cell Based Assay
SET-2 cells was purchased from DSMZ (Germany). RPMI1640 medium, Fetal Bovine Serum and 384-white sold flat-bottom small volume plate were purchased from Thermo Fisher Scientific (Waltham, MA). Phospho-STAT5 (Tyr694) HTRF kit was purchased from Perkin Elmer (Waltham, MA).
SET-2 cells were cultured in RPMI media with 20% FBS at 37° C. in humidified incubator supplied with 5% CO2. On the day of assay, the cells were centrifuged to remove the culture media and resuspended with prewarmed RPMI with 10% FBS. Testing compounds were prepared by serial dilution in DMSO and 50 nL/well test compounds were transferred to the 384 white low volume cell culture plate (Greiner Bio-one) by ECHO liquid handler (Labcyte). The cells were then dispensed with Multidrop (Thermo Fisher, Waltham, MA) at 10 μL/well (7×10^6 cells/mL) with 0.5% DMSO in the final assay. After the treated cells were incubated for 2 hours at 37° C./5% CO2 incubator, 4 μL/well supplemented lysis buffer (100× blocking buffer diluted 25 fold in 4× lysis buffer, Perkin Elmer) were added and incubated at room temperature for 90 min on orbital shaker at 600 rpm. Phospho-STAT5 Cryptate antibody and Phospho-STAT5 d2 antibody (1:1 vol/vol) were premixed and diluted 20 fold with in the detection buffer (Perkin Elmer). 4 μL of the premixed antibody solution were added to each well followed with 24 hours incubation at room temperature on orbital shaker at 600 rpm. The product activity was determined by measuring the fluorescence at 620 nm and 665 nm on Pherastar microplate reader (BMG Labtech). A ratio is calculated (665/620) for each well. Wells with DMSO only served as the positive controls and wells containing high concentration of control compound were used as negative controls. IC50 determination was performed by fitting the curve of percent control activity versus the log of the compound concentration using the GraphPad Prism 7.0 software.

FLT3 = FLT3 enzymatic assay; format: biochemical
Method: Example C. FLT3 Enzymatic Assay
(§3) The kinase assays were carried out at room temperature in assay buffer (HEPES 50 mM, pH 7.0, NaN3 0.02%, BSA 0.01%, Orthovanadate 0.1 mM, DTT 1 mM, MgCl2 10 mM) in a final volume of 10 μL. Testing compounds were prepared by serial dilution in DMSO and transferred to the plate wells by ECHO liquid handler (Labcyte) with 0.5% DMSO in the final assay. […]. Reactions were initiated by the addition of 5 μL ATP in assay buffer. The final 10 μL kinase reaction consists of 0.011 nM FLT3, 1 mM ATP, 500 nM TK Substrate-biotin and SEB reagent 62.5 nM in assay buffer. […] The plates were then sealed and centrifuged at 1800 rpm for 2 minutes. After 60 minutes incubation at room temperature, the product activity was determined by measuring the fluorescence at 620 nm and 665 nm on Pherastar microplate reader (BMG Labtech). A ratio is calculated (665/620 nm) for each well. Wells with DMSO only were served as the positive controls and wells containing no ATP were used as negative controls. IC50 determination was performed by fitting the curve of percent control activity versus the log of the compound concentration using the GraphPad Prism 7.0 software.

KIT = KIT enzymatic assay; format: biochemical
Method: Example D. KIT Enzymatic Assay
as §3, with “0.12” for “0.011”, “KIT,” for “FLT3,”

[4] = In vitro intrinsic clearance; format: in vitro ADME; conditions: human liver microsomes, 1 μM
Method: Example G. In Vitro Intrinsic Clearance Protocol
For in vitro metabolic stability experiments, test compounds were incubated with human liver microsomes at 37° C. The incubation mixture contained test compounds (1 μM), NADPH (2 mM), and human liver microsomes (0.5 mg protein/mL) in 100 mM phosphate buffer (pH 7.4). The mixture was pre-incubated for 2 min at 37° C. before the addition of NADPH. Reactions were commenced upon the addition of NADPH and quenched with ice-cold methanol at 0, 10, 20, and 30 min. Terminated incubation mixtures were analyzed using LC-MS/MS system. The analytical system consisted of a Shimadzu LC-30AD binary pump system and SIL-30AC autosampler (Shimadzu Scientific Instruments, Columbia, MD) coupled with a Sciex Triple Quad 6500+ mass spectrometer from Applied Biosystems (Foster City, CA). […] Mobile phase A consisted of 0.1% formic acid in water, and mobile phase B consisted of 0.1% formic acid in acetonitrile. The total LC-MS/MS runtime was 2.75 minutes with a flow rate of 0.75 mL/min. Peak area integrations and peak area ratio calculations were performed using Analyst software (version 1.6.3) from Applied Biosystems.
The in vitro intrinsic clearance, CLint, in vitro, was calculated from the t1/2 of test compound disappearance as CLint, in vitro=(0.693/t1/2)×(1/Cprotein), where Cprotein is the protein concentration during the incubation, and t1/2 was determined by the slope (k) of the log-linear regression analysis of the concentration versus time profiles; thus, t1/2=ln 2/k. The CLint, in vitro values were scaled to the in vivo values for human by using physiologically based scaling factors, hepatic microsomal protein concentrations (45 mg protein/g liver), and liver weights (21 g/kg body weight). The equation CLint=CLint, in vitro×(mg protein/g liver weight)×(g liver weight/kg body weight) was used. The in vivo hepatic clearance (CLH) was then calculated by using CLint and hepatic blood flow, Q (20 mL·min^−1·kg^−1 in humans) in the well-stirred liver model disregarding all binding from CLH=(Q×CLint)/(Q+CLint). The hepatic extraction ratio was calculated as CLH divided by Q.

Chain of TRKA (Homo sapiens, UniProt P04629) (P04629 33-796, species assumed): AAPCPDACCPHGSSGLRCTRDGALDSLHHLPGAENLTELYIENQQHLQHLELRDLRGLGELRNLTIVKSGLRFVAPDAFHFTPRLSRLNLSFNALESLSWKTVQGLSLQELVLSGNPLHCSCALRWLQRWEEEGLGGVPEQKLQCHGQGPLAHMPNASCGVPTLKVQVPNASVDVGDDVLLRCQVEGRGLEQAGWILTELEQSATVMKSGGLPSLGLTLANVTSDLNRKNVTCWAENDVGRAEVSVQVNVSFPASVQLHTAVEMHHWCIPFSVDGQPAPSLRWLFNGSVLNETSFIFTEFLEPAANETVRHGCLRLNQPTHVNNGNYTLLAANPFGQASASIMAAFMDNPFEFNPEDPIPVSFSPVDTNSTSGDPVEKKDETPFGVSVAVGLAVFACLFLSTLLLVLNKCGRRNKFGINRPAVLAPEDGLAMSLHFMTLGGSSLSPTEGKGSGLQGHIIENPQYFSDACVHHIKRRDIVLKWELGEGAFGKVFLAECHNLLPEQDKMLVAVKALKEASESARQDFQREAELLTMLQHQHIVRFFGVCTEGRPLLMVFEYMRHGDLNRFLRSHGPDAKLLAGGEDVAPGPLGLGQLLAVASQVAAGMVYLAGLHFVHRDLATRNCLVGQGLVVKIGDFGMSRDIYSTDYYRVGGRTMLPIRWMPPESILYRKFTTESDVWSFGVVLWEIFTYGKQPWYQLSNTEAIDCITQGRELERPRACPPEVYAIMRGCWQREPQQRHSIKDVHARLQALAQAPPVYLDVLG

Row | IC50 (TRKA [2]) [nM] | IC50 [3] [nM] | h-IntCL [4] | Compound | Selectivity TRKA/JH2 V617F (TRKA [1]) | Selectivity FLT3/JH2 V617F (FLT3) | Selectivity KIT/JH2 V617F (KIT)
1 | < 25 | ≤ 300 | ‡ ‡ ‡ (h-IntCL of >1 L/h/kg) | Cn1cc(-c2[nH]c3ncc4c(c3c2-c2ccc3c(cnn3C)c2)n([C@H]2CC[C@@H](CC#N)CC2)c(=O)n4C)cn1 [C, reference compound] | * (selectivity of ≤500-fold) | * (selectivity of ≤500-fold) | * (selectivity of ≤500-fold)
2 |  | ≤ 300 | ‡ ‡ ‡ (h-IntCL of >1 L/h/kg) | COc1ccc(-c2c(-c3cnn(Cc4ccncc4)c3)[nH]c3ncc4c(c23)n(C2CCCC2)c(=O)n4C)cc1 [Comparative Example D, reference compound] |  |  | 

Reference: US12084430B2, “Tricyclic urea compounds as JAK2 V617F inhibitors” (Incyte Corporation, priority 2022, dated 2024)
